Assay results published in the supplement of paper PMC5908809.

How the values were obtained:
[1] = test system: normal NK cells expanded with K562-aAPC; test: drug sensitivity score (DSS) (DSS units); higher = more sensitive; extreme values may be limits of the assay; conditions: 72 h; IL-2 2.5 ng/mL
Procedure: (§1)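 Drug sensitivity and resistance testing on K562-aAPC-expanded normal NK cells: 5 concentrations (10-fold steps over a 10,000-fold range), 72 h at 37 °C, viability by CellTiter-Glo normalised to DMSO and benzethonium chloride controls; DSS from the fitted curve.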

[2] = test system: normal NK cells expanded with K562-aAPC; test: percent inhibition of viability; higher = more inhibition; conditions: 72 h, IL-2 2.5 ng/mL
Procedure: as §1

[3] = test system: NK-YS (IL-2 2.5 ng/mL); test: drug sensitivity score (DSS) (DSS units); higher = more sensitive; extreme values may be limits of the assay; conditions: 72 h
[4] = test system: normal primary NK cells, pool 2 (3 donors) (IL-2 2.5 ng/mL); test: as above; conditions: 72 h
[5] = test system: normal primary NK cells, pool 1 (3 donors) (IL-2 2.5 ng/mL); test: as above; conditions: 72 h
[6] = test system: SNK-6 (IL-2 2.5 ng/mL); test: as above; conditions: 72 h
[7] = test system: KHYG-1 (IL-2 2.5 ng/mL); test: as above; conditions: 72 h
[8] = test system: DERL-7 (IL-2 2.5 ng/mL); test: as above; conditions: 72 h
[9] = test system: normal primary NK cells, pool 3 (3 donors) (IL-2 2.5 ng/mL); test: as above; conditions: 72 h
[10] = test system: NKL (IL-2 2.5 ng/mL); test: as above; conditions: 72 h
[11] = test system: normal primary NK cells, pool 1 (3 donors), resting (IL-2 0 ng/mL); test: as above; conditions: 72 h
[12] = test system: KAI3 (IL-2 2.5 ng/mL); test: as above; conditions: 72 h
[13] = test system: YT (IL-2 2.5 ng/mL); test: as above; conditions: 72 h
[14] = test system: NK-92 (IL-2 2.5 ng/mL); test: as above; conditions: 72 h
[15] = test system: IMC-1 (IL-2 20 ng/mL); test: as above; conditions: 72 h
[16] = test system: NK-YS (IL-2 2.5 ng/mL); test: percent inhibition of viability; higher = more inhibition; conditions: 72 h
[17] = test system: normal primary NK cells, pool 2 (3 donors) (IL-2 2.5 ng/mL); test: as above; conditions: 72 h
[18] = test system: normal primary NK cells, pool 1 (3 donors) (IL-2 2.5 ng/mL); test: as above; conditions: 72 h
[19] = test system: SNK-6 (IL-2 2.5 ng/mL); test: as above; conditions: 72 h
[20] = test system: KHYG-1 (IL-2 2.5 ng/mL); test: as above; conditions: 72 h
[21] = test system: DERL-7 (IL-2 2.5 ng/mL); test: as above; conditions: 72 h
[22] = test system: normal primary NK cells, pool 3 (3 donors) (IL-2 2.5 ng/mL); test: as above; conditions: 72 h
[23] = test system: NKL (IL-2 2.5 ng/mL); test: as above; conditions: 72 h
[24] = test system: normal primary NK cells, pool 1 (3 donors), resting (IL-2 0 ng/mL); test: as above; conditions: 72 h
[25] = test system: KAI3 (IL-2 2.5 ng/mL); test: as above; conditions: 72 h
[26] = test system: YT (IL-2 2.5 ng/mL); test: as above; conditions: 72 h
[27] = test system: NK-92 (IL-2 2.5 ng/mL); test: as above; conditions: 72 h
[28] = test system: IMC-1 (IL-2 20 ng/mL); test: as above; conditions: 72 h

COc1cc2c(cc1-c1c(C)noc1C)ncc1[nH]c(=O)n([C@H](C)c3ccccn3)c12 [I-BET151] (max concentration tested 10000 nM)
Conditions	drug sensitivity score
[1]	6.57
[3]	11.1
[4]	8.63
[5]	9.37
[6]	16.1
[7]	14.1
[8]	17.4
[9]	6.22
[10]	12.4
[11]	7.37
[12]	7.74
[13]	8.36
[14]	1.57
[15]	6.36

percent inhibition of viability [%]
Conditions	1 nM	10 nM	100 nM	1000 nM	10000 nM
[2]	-4.2	-5.61	-3.72	17.1	70.7
[16]	-6.04	0.41	9.82	50.3	86
[17]	-6.96	-4.14	1.63	30.1	81.5
[18]	4.94	14.1	16.8	34.1	86.3
[19]	-9.22	-7.3	19.2	71.4	58.4
[20]	-6.56	-3.86	2.8	72	98.6
[21]	-3.21	-1.77	20	81.5	100
[22]	0.13	-4.21	7.82	12.9	73.7
[23]	-4.89	-7.31	11.6	58.9	75
[24]	11.1	15.2	12.9	26.3	69
[25]	-1.82	-7.24	-5.5	36.7	60.8
[26]	-4.09	-3.54	-0.4	36.2	69.4
[27]	-10.1	-10.2	-33.2	-7	39.9
[28]	-10.4	-6.13	-13.8	11.4	80.4

C[C@@H]1CN(Cc2ccc(F)cc2)[C@@H](C)CN1C(=O)c1cc2c(C(=O)C(=O)N(C)C)cn(C)c2cc1Cl [Talmapimod] (max concentration tested 10000 nM)
Conditions	drug sensitivity score
[1]	0
[3]	0.37
[4]	0
[5]	0
[6]	0
[7]	0
[8]	0
[9]	0
[10]	1.47
[11]	4.01
[12]	6.42
[13]	0.18
[14]	0
[15]	0

percent inhibition of viability [%]
Conditions	1 nM	10 nM	100 nM	1000 nM	10000 nM
[2]	-9.71	-4.89	-9.38	-4.26	-10.1
[16]	-5.34	-2.3	1.96	6.17	14.5
[17]	-0.88	-7.3	-3.09	1.69	0.02
[18]	-13.6	-10.8	-4.95	-6.75	2.92
[19]	-0.46	-0.9	-3.03	-23.7	-10.1
[20]	-8.74	-9.48	-3.07	-9.07	-3.04
[21]	-8.76	3.34	-3.64	2.18	-3.8
[22]	-3.75	4.83	4.73	0.2	1.78
[23]	-6.18	-3.36	7.54	9.7	22.9
[24]	-0.54	-6.9	17.6	15.2	37
[25]	-4.84	8.7	21.6	21.2	32.1
[26]	-3.64	-1.4	4.73	5.29	14.3
[27]	-13.6	-14.2	-7.08	-0.77	6.94
[28]	-2.4	-5.13	-5.16	-10.4	0.72

O=NN(CCCl)C(=O)NC1CCCCC1 [Lomustine] (max concentration tested 10000 nM)
Conditions	drug sensitivity score
[1]	0
[3]	0
[4]	0
[5]	0
[6]	0
[7]	0
[8]	0
[9]	0
[10]	0
[11]	0
[12]	0
[13]	0
[14]	0
[15]	0

percent inhibition of viability [%]
Conditions	1 nM	10 nM	100 nM	1000 nM	10000 nM
[2]	-0.77	-4.05	-3.71	-4.93	-6.08
[16]	-6.33	-2.26	-1.76	0.49	4.09
[17]	-12.4	-5.7	-9.1	-11.4	-2.45
[18]	-1.98	-5.39	-3.98	-5.42	-0.06
[19]	10.8	20.4	-2.23	6.58	-11
[20]	-7.65	-1.52	-3.58	-1.68	0.4
[21]	-0.56	-0.17	-2.85	-3.2	-5.37
[22]	-11.8	-8.98	-8.45	-6.32	-4.26
[23]	-15	-16.4	-19.5	-23.3	-24.5
[24]	-9.1	-11.4	-22.4	13.4	3.51
[25]	-9.82	0.25	-6.64	-4.27	-3.54
[26]	-3.7	-2.05	-4.42	-2.81	0.06
[27]	-9.96	-19	-9.06	-13.7	-15.8
[28]	-5.94	-3.37	-4.39	-5.66	-4.09
